According to PMC2131757 (BMC Neuroscience, 2007):

How the values were obtained:
Format in all cases: cell-based, murine
[1] = system: COX-1 in NB4 1A3 neuroblastoma cells
[2] = system: cPLA2 in NB4 1A3 neuroblastoma cells
[3] = system: NB4 1A3 neuroblastoma cells
[4] = system: NB4 1A3 neuroblastoma cells; remark: listed apart in the source
[5] = system: NB4 1A3 neuroblastoma cells; remark: listed apart in the source
[6] = system: NB4 1A3 neuroblastoma cells; conditions: n = 6
NB4 neuroblastoma cells = system: NB4 neuroblastoma cells

Molecule | % of MoPrP105-132 co-localised with COX-1 in Hexa-PAF-treated cells [1] | % of MoPrP105-132 co-localised with cPLA2 in Hexa-PAF-treated cells [2] | % of MoPrP105-132 co-localised with COX-1 in squalestatin-treated cells [1] | membrane fraction in which MoPrP105-132 is found (raft / non-raft) in squalestatin-treated cells [3] | endosomal fraction in which MoPrP105-132 is detected in squalestatin-treated cells [4] | % of MoPrP105-132 co-localised with cPLA2 in squalestatin-treated cells [2] | % of MoPrP105-132 co-localised with CTxB in squalestatin-treated cells [5] | % of MoPrP105-132 co-localised with GM130 (Golgi) in squalestatin-treated cells [5] | % of MoPrP105-132 co-localised with Grp78 (ER) in squalestatin-treated cells [5] | % of MoPrP105-132 co-localised with LAMP-1 (lysosomes) in squalestatin-treated cells [5] | % of MoPrP105-132 co-localised with TfR (early endosomes) in squalestatin-treated cells [5] | % of MoPrP105-132 co-localised with caveolin-1 in squalestatin-treated cells [5] | cell associated fluorescence (mean fluorescence intensity) of ingested MoPrP105-132 in squalestatin treated cells [6] | effect of squalestatin treatment on MoPrP105-132 induced neurotoxicity (NB4 neuroblastoma cells)
1-O-alkyl-2-acetyl-sn-glycerol-3-phospho-(N,N,N-trimethyl)-hexanolamine [Hexa-PAF] | 13% ± 3 | 22% ± 6 |  |  |  |  |  |  |  |  |  |  |  | 
C=C(CC[C@]12O[C@H](C(=O)O)[C@@](O)(C(=O)O)[C@](C(=O)O)(O1)[C@H](OC(=O)/C=C/[C@@H](C)C[C@@H](C)CC)[C@H]2O)[C@@H](OC(C)=O)[C@H](C)Cc1ccccc1 [Squalestatin, squalestatin] |  |  | 5% ± 5 | most of the MoPrP105-132 was detected in the non-raft fraction | detected in the LAMP-1 positive, TfR negative, lysosomal fraction | 13% ± 4 | 5% ± 1 | 7% ± 2 | 3% ± 2 | 40% ± 6 | 68% ± 8 | 9% ± 3 | 25.3 ± 4 arbitrary units | prevent peptide-induced neurotoxicity
